We go through two molecules from patent publication US10612035B2, “EPSPS mutants” (priority 2006, dated 2020).

In assay [1] the target is wild-type EPSPS from E. coli (Escherichia coli, UniProt P0A6D3). The conditions noted are these: read-out: apparent Km for PEP; cited from earlier work.
Assay [2] deals with Rice plants regenerated that contain the P173A mutant. The conditions noted are these: applied at commercial rates; rice with P173A EPSPS mutant. From the text: The following genoplast (recombinagenic oligonucleobase) was made to make a P173A change in Oryza sativa (rice) germplasm:
wherein V is a fluorescent dye (V=Cy3) and H is a reverse nucleotide or reverse base (H=3′DMTdCCPG). The underlined nucleobases represent the heterologous region (codon) where the mutation occurs in the rice genome, ie, A. The genoplast is made according to well known techniques and the genoplast is preferably delivered into a rice plant cell via microparticle bombardment, ie, biolistics.

Assay [3] relates to Canola plants regenerated that contain the P178A mutant. The conditions noted are these: applied at commercial rates; canola with P178A EPSPS mutant. From the text: The following genoplast (recombinagenic oligonucleobase) was made to make a P178A change in Brassica napus (canola) germplasm:
wherein V is a fluorescent dye (V=Cy3) and H is a reverse nucleotide or reverse base (H=3′DMTdCCPG). The underlined nucelobases represent the heterologous region (codon) where the mutation occurs in the canola genome, ie, A. The genoplast is made according to well known techniques and the genoplast is preferably delivered into a canola plant cell via microparticle bombardment, ie, biolistics.

Assay [4] concerns EPSPS mutations in E coli (Area) and Arabidopsis NM 130093. The conditions noted are these: mutations 1-9 of the table.
Text: To identify mutant EPSPS genes that will produce a gene product that provides resistance to glyphosate, in vitro screening can be done in a bacterial system to save time and resources. Growth curves of bacterial colonies expressing candidate mutant EPSPS genes can be generated to evaluate the mutant EPSPS genes in providing a glyphosate resistant phenotype. […] In another embodiment of the present invention, the E coli EPSPS gene, also called the AroA gene, can be used to evaluate EPSPS mutants for glyphosate resistance. Growth curve assays and enzymatic assays measuring Ki and Km values for candidate mutants are conducted according to well known assay techniques.

Sequence of wild-type EPSPS from E. coli (P0A6D3 whole entry): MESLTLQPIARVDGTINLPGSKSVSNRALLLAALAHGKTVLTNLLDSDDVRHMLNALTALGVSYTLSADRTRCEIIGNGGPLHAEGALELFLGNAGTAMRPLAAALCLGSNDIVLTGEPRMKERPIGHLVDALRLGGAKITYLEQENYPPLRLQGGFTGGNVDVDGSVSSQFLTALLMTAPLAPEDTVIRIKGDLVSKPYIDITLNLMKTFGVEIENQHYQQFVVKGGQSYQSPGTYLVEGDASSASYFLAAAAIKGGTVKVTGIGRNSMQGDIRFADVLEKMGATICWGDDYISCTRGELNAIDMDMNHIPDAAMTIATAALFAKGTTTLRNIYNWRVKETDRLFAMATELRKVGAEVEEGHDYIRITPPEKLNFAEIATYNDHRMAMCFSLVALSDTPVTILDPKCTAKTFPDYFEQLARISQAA

On to `C=C(OP(=O)(O)O)C(=O)O` [PEP, phosphoenolpyruvic acid], for which, in assay [1], the Km was 10 µM.

Regarding `O=C(O)CNCP(=O)(O)O` [glyphosate, N-phosphonomethylglycine], the “resistance of plants to glyphosate” value in assay [2] and in assay [3] was “resistant” throughout. In assay [4], the glyphosate resistant phenotype result is “resistant”.
